{"source": "patent US20120258998A1", "about": "“Fusion genes in gastrointestinal cancer” (priority 2011, published 2012)", "type_in_all_cases": "cell-based", "key": {"[1]": {"test_system": "wild-type CD44 and SLC1A2", "experiment": "RT-PCR of wild-type CD44 and SLC1A2 expression after fusion-specific siRNA treatment", "conditions": "SNU16 cells", "procedure": "(§1) Gastric cancer RNAs were reverse transcribed by SuperScript II reverse transcriptase enzyme using oligo-dT (T18) primers (Invitrogen). To detect CD44-SLC1A2, RT-PCR was performed using forward primers to CD44 exon 1 (5′-[…]-3′ (SEQ ID NO: 3)) and reverse primers to either SLC1A2 exon 3 (5′-[…]-3′ (SEQ ID NO: 4)); exon4 (5′-[…]-3′) (SEQ ID NO: 5); exons (5′-[…]-3′ (SEQ ID NO: 6)) or exon 6 (5′[…]-3′ (SEQ ID NO: 7)). Products were resolved by gel electrophoresis and bands of interest excised and cloned for subsequent analysis. To evaluate wild-type CD44 and SLC1A2 expression independently of CD44-SLC1A2, we used CD44 primers targeting exons 3, 4, 5; and SLC1A2 primers targeting exon 1. CD44-SLC1A2 RT-PCR involving clinical specimens (FIG. 1) was performed in an unselected cohort of gastric cancer patients. Reactions were repeated a minimum of three independent times.\n(§2) Gastric cancer cells were transfected with either specific siRNAs targeted to the CD44-SLC1A2 fusion site (100 nM, custom siRNA siGENOME with SMART selection, Dharmacon) or negative control scrambled siRNAs using siPORT™ NeoFX™ transfection reagent (Applied Biosystem) in Optimem Medium (Invitrogen) following the manufacturer's protocol. After 24, 48, and 72 hours siRNA treatment, cells were subjected for downstream analysis. […]"}, "SLC1A2 protein [2]": {"test_system": "SLC1A2 protein", "experiment": "Immunofluorescence staining with SLC1A2 antibodies", "conditions": "SNU16 cells, control vs fusion silenced", "procedure": "(§3) Gastric cancer cells were transfected with either specific siRNAs targeted to the CD44-SLC1A2 fusion site (100 nM, custom siRNA siGENOME with SMART selection, Dharmacon) or negative control scrambled siRNAs using siPORT™ NeoFX™ transfection reagent (Applied Biosystem) in Optimem Medium (Invitrogen) following the manufacturer's protocol. After 24, 48, and 72 hours siRNA treatment, cells were subjected for downstream analysis. For overexpression studies, the full length coding regions of CD44-SLC1A2 cDNA were inserted into the pEGFP-N1 vector. Control vectors or fusion-GFP vectors were introduced into HFE145 cells, and stable transfectants were selected using puromycin for 4 weeks.\nCells were fixed with 3.7% formaldehyde followed by permeabilisation using 0.1% Triton X-100. After 3× washes with 1×PBS, cells were blocked with 1% BSA. Subsequently, cells were incubated with primary SLC1A2 antibodies (Cell Signaling Technology) for 2 hours followed by 2 hours secondary antibody (Sigma) incubation. Images were taken using a Nikon Eclipse TE2000-U microscope."}, "SLC1A2 protein [3]": {"test_system": "SLC1A2 protein", "experiment": "Western blotting with anti-SLC1A2 antibodies, SNU16 membrane fraction", "conditions": "after fusion-specific siRNA", "procedure": "Cells were harvested in lysis buffer (10 mM Tris.Cl pH 7.5, 150 mM NaCl, 1% Triton X-114) for 1 hour at […], and centrifuged at 800 g. Supernatants were incubated at 30° C. for 5-10 min and further centrifuged at RT, 300 g. Western blotting was performed on membrane fractions using the following antibodies and dilutions: 1:500 SLC1A2/EAAT2 (Cell Signaling Technologies), 1:2000 α-tubulin (Cell Signaling Technologies). Experiments were repeated a minimum of three independent times.\nas §3"}, "SNU16 cells [4]": {"test_system": "SNU16 cells", "experiment": "Cell proliferation assay, SNU16", "conditions": "vs scrambled/control siRNA", "procedure": "as §3\n(§4) Cell proliferation assays were performed using a CellTiter-96 Aqueous Nonradioactive Cell Proliferation Assay kit (Promega) following the manufacturer's instructions and the plates were measured by PerkinElmer plate reader. Cell invasion assays were performed using Biocoat™ Matrigel™ invasion chambers with 8 μm pore filter inserts (BD Bioscience). 48 hours after transfection, 5×10^4 cells were transferred to the upper matrigel chamber in 500 μl of serum-free medium and incubated for 24 hours. Invading cells were counted using light microscopy. Each assay was performed in triplicate, and the results were averaged over three independent experiments."}, "SNU16 cells [5]": {"test_system": "SNU16 cells", "experiment": "Colony formation assay, SNU16", "conditions": "vs scrambled siRNA", "procedure": "as §3\nBase layers of 0.5% Gum Agar in 1× McCoy's 5 A and 10% FBS were poured into 6-well plates and allowed to harden at 4° C. After 48 hours siRNA transfection, 50,000 cells/well were seeded in complete media plus agar mixture at 42° C. and seeded on top of the solidified base layer. Plates were incubated at 37° C. in for 3-4 weeks, during which plates were fed drop-wise with complete media. After 3-4 weeks, plates were photographed using the Kodak GL 200 System (EpiWhite illumination). Each assay was performed in triplicate, and the results were averaged over three independent experiments."}, "CD44-SLC1A2 fusion gene": {"test_system": "CD44-SLC1A2 fusion gene", "experiment": "RT-PCR of CD44-SLC1A2 expression after fusion-specific siRNA treatment", "conditions": "SNU16 cells, siRNA 100 nM, vs scrambled siRNA", "procedure": "as §1, §2"}, "SNU16 cells [6]": {"test_system": "SNU16 cells", "experiment": "Matrigel cell invasion assay, SNU16", "conditions": "vs control", "procedure": "as §3, §4"}, "AGS cells": {"test_system": "AGS cells", "experiment": "Cell proliferation assay, AGS fusion negative cells", "procedure": "Gastric cancer cells were transfected with either specific siRNAs targeted to the CD44-SLC1A2 fusion site (100 nM, custom siRNA siGENOME with SMART selection, Dharmacon) or negative control scrambled siRNAs using siPORT™ NeoFX™ transfection reagent (Applied Biosystem) in Optimem Medium (Invitrogen) following the manufacturer's protocol. After 24, 48, and 72 hours siRNA treatment, cells were subjected for downstream analysis. For overexpression studies, the full length coding regions of CD44-SLC1A2 cDNA were inserted into the pEGFP-N1 vector. Control vectors or fusion-GFP vectors were introduced into HFE145 cells, and stable transfectants were selected using puromycin for 4 weeks. Cell proliferation assays were performed using a CellTiter-96 Aqueous Nonradioactive Cell Proliferation Assay kit (Promega) following the manufacturer's instructions and the plates were measured by PerkinElmer plate reader. Cell invasion assays were performed using Biocoat™ Matrigel™ invasion chambers with 8 μm pore filter inserts (BD Bioscience). 48 hours after transfection, 5×10^4 cells were transferred to the upper matrigel chamber in 500 μl of serum-free medium and incubated for 24 hours. Invading cells were counted using light microscopy. Each assay was performed in triplicate, and the results were averaged over three independent experiments. […]"}, "SNU16 cells [7]": {"test_system": "SNU16 cells", "experiment": "5-Fluorouracil sensitivity, MTS proliferation assay", "conditions": "SNU16 cells before and after CD44-SLC1A2 siRNA1 silencing, vs scrambled siRNA", "procedure": "(§5) Gastric cancer cells and primary tissues were lysed with glutamate assay buffer and glutamate concentrations were determined using a Glutamate Assay Kit (BioVision, USA). Briefly, to each cellular lysate, a vendor-provided glutamate Enzyme Mix was added which recognizes glutamate as a specific substrate leading to proportional color development. For cisplatin treatments, cells were seeded into 96 well plates after siRNA transfection. Subsequently, cisplatin or 5-FU at increasing dosages were added (0-1 mM) to respective wells. Cells were subjected to MTS proliferation assays after 48 hours of drug treatment. Each assay was performed in triplicate, and the results were averaged over three independent experiments."}, "SNU16 cells [8]": {"test_system": "SNU16 cells", "experiment": "Cisplatin sensitivity, MTS proliferation assay", "conditions": "48 hours of drug treatment, read-out: GI50 (concentration required to cause 50% growth inhibition)", "procedure": "as §5"}}, "note": "Where two headings read alike, the source gives them in different places.", "data": [{"compound": "siRNA2: second siRNA targeting the CD44-SLC1A2 fusion site, 5′-GCACAUCGUGCCAACAAUAUU-3′ (SEQ ID NO: 28) (chemistry not given here)", "values": [{"measurement": "independent (regular) CD44 and SLC1A2 expression", "setting": "[1]", "value": "without impairing regular CD44 and SLC1A2 expression"}, {"measurement": "membranous expression of SLC1A2 (immunofluorescence)", "setting": "SLC1A2 protein [2]", "value": "significantly reduced"}, {"measurement": "SLC1A2 protein expression (Western blotting)", "setting": "SLC1A2 protein [3]", "value": "knockdown of SLC1A2 protein expression"}, {"measurement": "proliferation rate", "setting": "SNU16 cells [4]", "value": "significant decrease in proliferation rate"}, {"measurement": "colony formation (anchorage-independent growth)", "setting": "SNU16 cells [5]", "value": "reduction in numbers of colonies formed"}, {"measurement": "CD44-SLC1A2 expression", "setting": "CD44-SLC1A2 fusion gene", "value": "Reduction of CD44-SLC1A2 expression"}, {"measurement": "cell invasion rate", "setting": "SNU16 cells [6]", "value": "significant reduction of invasion rate"}, {"measurement": "proliferation of AGS cells after fusion-specific siRNA", "setting": "AGS cells", "value": "proliferation of AGS cells is not affected"}]}, {"compound": "siRNA1: siRNA targeting the CD44-SLC1A2 fusion site, 5′-CGCAGAUCGUGCCAACAAUUU-3′ (SEQ ID NO: 27) (chemistry not given here)", "values": [{"measurement": "proliferation of AGS cells after fusion-specific siRNA", "setting": "AGS cells", "value": "proliferation of AGS cells is not affected"}]}, {"compound": "O=c1[nH]cc(F)c(=O)[nH]1", "note": "[5-fluorouracil]", "values": [{"measurement": "5-Fluorouracil sensitivity, control vs CD44-SLC1A2 silenced cells", "setting": "SNU16 cells [7]", "value": "no differences between control and silenced cells were observed"}, {"measurement": "5-Fluorouracil sensitivity, control vs CD44-SLC1A2 silenced cells", "setting": "SNU16 cells [7]; listed as 5-Fluorouracil", "value": "no significant change in sensitivity to 5-Fluorouracil"}]}, {"compound": "N.N.[Cl][Pt][Cl]", "note": "[cisplatin]", "values": [{"measurement": "GI50", "setting": "SNU16 cells [8]; SNU16 cells after CD44-SLC1A2 siRNA treatment", "value": 3.96, "unit": "µM"}, {"measurement": "GI50", "setting": "SNU16 cells [8]; control SNU16 cells", "value": 11.8, "unit": "µM"}]}]}
